Laboratory results as given in ChEMBL document CHEMBL1201862, “PubChem BioAssay data set” (2004).
“And” between values parts separate entries of the source, which are not always exact repeats. Identical values can stand only once.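 Protocol summary: plate cells (96-well), add compound at 5 concentrations, incubate 48 h, interpolate endpoints linearly. GI50 = concentration required for 50% inhibition of growth.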 The source made the active and inactive calls. No stated cut-off is given here; in the data, active = GI50 up to about 1.1 µM and inactive = higher.

Assays:
Experiment in all cases: NCI tumour cell line growth inhibition, 48 h
A498 = system: A498
A549 = system: A549
CCRF-CEM = system: CCRF-CEM
HL-60 = system: HL-60
HT-29 = system: HT-29
K562 = system: K562
NCI-H460 = system: NCI-H460
NCI-H522 = system: NCI-H522
OVCAR-3 = system: OVCAR-3
OVCAR-4 = system: OVCAR-4
RPMI-8226 = system: RPMI-8226
RXF 393 = system: RXF 393
SF-268 = system: SF-268
SF-295 = system: SF-295
SF-539 = system: SF-539
SK-MEL-28 = system: SK-MEL-28
SN12C = system: SN12C
UACC-257 = system: UACC-257
SR = system: SR
786-0 = system: 786-0

Compound | GI50 (A498) | GI50 (A549) | GI50 (CCRF-CEM) | GI50 (HL-60) | GI50 (HT-29) | GI50 (K562) | GI50 (NCI-H460) | GI50 (NCI-H522) | GI50 (OVCAR-3) | GI50 (OVCAR-4) | GI50 (RPMI-8226) | GI50 (RXF 393) | GI50 (SF-268) | GI50 (SF-295) | GI50 (SF-539) | GI50 (SK-MEL-28) | GI50 (SN12C) | GI50 (UACC-257) | GI50 (SR) | GI50 (786-0)
COC(=O)C1CCC(=O)C(Sc2ccccc2)C1 (centres undefined) | > 100 µM (inactive) | > 100 µM (inactive) | 22.5 µM (inactive) | 34 µM (inactive) | > 100 µM (inactive) | 63.1 µM (inactive) | > 100 µM (inactive) | 52.7 µM (inactive) | > 100 µM (inactive) | > 100 µM (inactive) | 44.3 µM (inactive) | > 100 µM (inactive) | 59.8 µM (inactive) | > 100 µM (inactive) | > 100 µM (inactive) | > 100 µM (inactive) | > 100 µM (inactive) | 83.8 µM (inactive) |  | 
c1ccc(/N=C(\N2CCCCC2)N(CCN2CCCCC2)c2ccccc2)cc1 |  | 2.11 µM (inactive) | 1 µM (active) | 0.277 µM (active) | 0.141 µM (active) | 0.254 µM (active) | 0.274 µM (active) | 0.428 µM (active) | 0.401 µM (active) | 1.2 µM (inactive) | 0.192 µM (active) |  |  | 1.04 µM (active) |  | 1.99 µM (inactive) | 2.11 µM (inactive) | 1.82 µM (inactive) | 0.28 µM (active) | 
c1ccc(C2N3CCCCC3[C@@H]3c4[nH]c5ccccc5c4CCN23)cc1 (some centres undefined) | 27 µM (inactive) | > 100 µM (inactive) | 28.6 µM (inactive) | 22.1 µM (inactive) | 17.5 µM (inactive) | 41.4 µM (inactive) | 48.8 µM (inactive) |  | > 100 µM (inactive) | 29.5 µM (inactive) | 36.2 µM (inactive) | 47.3 µM (inactive) | > 100 µM (inactive) | > 100 µM (inactive) | > 100 µM (inactive) | 28 µM (inactive) | > 100 µM (inactive) | > 100 µM (inactive) |  | > 100 µM (inactive)
CO/C(=N\N=Cc1ccccc1)c1ccncc1 | > 100 µM (inactive) | > 100 µM (inactive) | > 100 µM (inactive) | > 100 µM (inactive) | > 100 µM (inactive) | > 100 µM (inactive) | > 100 µM (inactive) | 68.9 µM (inactive) | > 100 µM (inactive) | > 100 µM (inactive) | > 100 µM (inactive) |  | > 100 µM (inactive) | > 100 µM (inactive) | > 100 µM (inactive) | > 100 µM (inactive) | > 100 µM (inactive) | > 100 µM (inactive) | > 100 µM (inactive) | 
N/C(=N\O)N/N=C/c1cc2c(cc1Cl)OCO2 | 65.6 µM (inactive) | 36.8 µM (inactive) | 27 µM (inactive) | 13.1 µM (inactive) | 46.1 µM (inactive) | 26.1 µM (inactive) | 34.1 µM (inactive) | 16 µM (inactive) |  | 52 µM (inactive) | 24 µM (inactive) | 38.4 µM (inactive) | 25.4 µM (inactive) | 22.9 µM (inactive) | 31.8 µM (inactive) | 64.4 µM (inactive) | 59 µM (inactive) | 42.3 µM (inactive) |  | 
Clc1ccc(OC2CCO2)cc1Cl (centres undefined) | 38 µM (inactive) | > 100 µM (inactive) | 48.3 µM (inactive) | 35.6 µM (inactive) | 85.5 µM (inactive) | 40.6 µM (inactive) | 47.2 µM (inactive) | 34.3 µM (inactive) | 57.8 µM (inactive) | 60 µM (inactive) | 43.5 µM (inactive) |  | 78.2 µM (inactive) | > 100 µM (inactive) | > 100 µM (inactive) | > 100 µM (inactive) | 88.5 µM (inactive) | 40 µM (inactive) |  | 85.9 µM (inactive)
Nc1ccc2cc(S(=O)(=O)O)cc(O)c2c1/N=N/c1ccc(NC(=O)Nc2ccc(/N=N/c3c(N)ccc4cc(S(=O)(=O)O)cc(O)c34)c(S(=O)(=O)O)c2)cc1S(=O)(=O)O | > 100 µM (inactive) | > 100 µM (inactive) | > 69.3 µM (inactive) | 44.4 µM (inactive) | > 100 µM (inactive) | > 100 µM (inactive) | > 100 µM (inactive) | > 100 µM (inactive) | > 100 µM (inactive) | > 84.1 µM (inactive) |  | > 100 µM (inactive) | > 100 µM (inactive) | > 100 µM (inactive) | > 100 µM (inactive) | > 100 µM (inactive) | > 100 µM (inactive) | > 100 µM (inactive) |  | 
COc1ccc2c(c1)-c1oc3ccccc3c(=O)c1CO2 |  | 43 µM (inactive) | 20.5 µM (inactive) |  | 31.1 µM (inactive) | 65 µM (inactive) |  | 32.1 µM (inactive) | 31.3 µM (inactive) |  | 20.8 µM (inactive) |  | 25 µM (inactive) | 69 µM (inactive) | 35.5 µM (inactive) |  | 32.7 µM (inactive) | 31.8 µM (inactive) |  | 31.7 µM (inactive)
CC1OC1C(=O)P(=O)(O)O (centres undefined) | > 100 µM (inactive) | > 100 µM (inactive) | > 100 µM (inactive) | > 100 µM (inactive) |  | > 100 µM (inactive) | > 100 µM (inactive) | > 100 µM (inactive) | > 100 µM (inactive) | > 100 µM (inactive) | > 100 µM (inactive) |  | > 100 µM (inactive) | > 100 µM (inactive) | > 100 µM (inactive) | > 100 µM (inactive) | > 100 µM (inactive) | > 100 µM (inactive) | > 100 µM (inactive) | 
Cn1nc(-c2ccccc2)c(C(=O)/C=C/c2ccccc2)c(N2CCCC2)c1=O | 11.4 µM (inactive) | 19.9 µM (inactive) | 7.8 µM (inactive) | 4.34 µM (inactive) | 12.6 µM (inactive) | 7.14 µM (inactive) | 10.3 µM (inactive) | 4.83 µM (inactive) |  |  | 6.35 µM (inactive) | 6.59 µM (inactive) | 13.7 µM (inactive) |  | 13.2 µM (inactive) | 16.6 µM (inactive) | 20.7 µM (inactive) |  |  | 13.2 µM (inactive)
CN(c1ccc(C(=O)c2ccc(N(C)S(C)(=O)=O)cc2)cc1)S(C)(=O)=O | > 100 µM (inactive) | > 100 µM (inactive) | > 100 µM (inactive) | 76.4 µM (inactive) | > 100 µM (inactive) | 49.3 µM (inactive) | > 100 µM (inactive) | 94.2 µM (inactive) |  | > 100 µM (inactive) | > 100 µM (inactive) |  | > 100 µM (inactive) | 78.2 µM (inactive) |  | 54.6 µM (inactive) | > 100 µM (inactive) | 48.9 µM (inactive) | 59.8 µM (inactive) | > 100 µM (inactive)
CC(C)N(C(=O)C1(O)c2ccccc2C=Cc2ccccc21)C(C)C | 16.3 µM (inactive) | 19.9 µM (inactive) |  | 1.92 µM (inactive) | 15.3 µM (inactive) |  |  | 12.5 µM (inactive) | 16.9 µM (inactive) | 22.5 µM (inactive) | 35.9 µM (inactive) |  | 21.5 µM (inactive) | 17.8 µM (inactive) | 18.7 µM (inactive) | 17.2 µM (inactive) | 16.3 µM (inactive) |  | 23.3 µM (inactive) | 20.6 µM (inactive)
O=C1OC(c2ccccc2)=N/C1=C\c1ccccc1 | > 100 µM (inactive) | > 100 µM (inactive) | 21 µM (inactive) and 24.6 µM (inactive) | 29.5 µM (inactive) and 18.7 µM (inactive) |  |  | 45.9 µM (inactive) and 43.9 µM (inactive) | 42.9 µM (inactive) | 24 µM (inactive) | 86.5 µM (inactive) and 49.7 µM (inactive) | 30.5 µM (inactive) and 22.5 µM (inactive) |  |  | 69 µM (inactive) and 68.2 µM (inactive) | 19 µM (inactive) and 21.1 µM (inactive) | > 100 µM (inactive) and 83.9 µM (inactive) | 66.4 µM (inactive) | 41.4 µM (inactive) and 25.9 µM (inactive) | 28.4 µM (inactive) and 14.5 µM (inactive) | 
CCCCCCC1NN(C(C)=O)C(CCCCCC)NN1C(C)=O (centres undefined) |  |  | 42.2 µM (inactive) | 46.5 µM (inactive) | > 100 µM (inactive) | 32 µM (inactive) | 17.7 µM (inactive) | > 100 µM (inactive) | > 100 µM (inactive) | > 100 µM (inactive) | 24 µM (inactive) |  |  | > 100 µM (inactive) | > 100 µM (inactive) |  | > 100 µM (inactive) | > 100 µM (inactive) |  | > 100 µM (inactive)
CC1(C)[C@H](C(=O)O)N2C(=O)[C@@H](NS(=O)(=O)c3ccc([N+](=O)[O-])cc3)[C@H]2S1(=O)=O | > 100 µM (inactive) | > 100 µM (inactive) | > 100 µM (inactive) | > 100 µM (inactive) | > 100 µM (inactive) | > 100 µM (inactive) | > 100 µM (inactive) | > 100 µM (inactive) | > 100 µM (inactive) | > 100 µM (inactive) |  | > 100 µM (inactive) | > 100 µM (inactive) | > 100 µM (inactive) | > 100 µM (inactive) | > 100 µM (inactive) | > 100 µM (inactive) | > 100 µM (inactive) |  | > 100 µM (inactive)
O=[N+]([O-])c1ccc(C2=NOC(c3ccccc3F)N2C23CC4CC(CC(C4)C2)C3)cc1 (centres undefined) | > 100 µM (inactive) | > 100 µM (inactive) | > 100 µM (inactive) | 25.9 µM (inactive) | > 100 µM (inactive) | > 100 µM (inactive) | > 100 µM (inactive) | > 100 µM (inactive) | > 100 µM (inactive) | > 100 µM (inactive) | 98.9 µM (inactive) |  | > 100 µM (inactive) | > 100 µM (inactive) | > 100 µM (inactive) | > 100 µM (inactive) | > 100 µM (inactive) | > 100 µM (inactive) | > 100 µM (inactive) | > 100 µM (inactive)
